Data set [1] relates to GFP-HEK cells. How it is done:
Cell viability was measured by the standard MTT assay. HeLa-DsRed or GFP-HEK cells were seeded into 96-well plate with a density of 5×10^3 cell/well. (−30)GFP-Cre/LNP or Cas9:sgRNA/LNP nanoparticles were added after 24 h of incubation. The final concentration of protein is 25 nM and LNP is 3.3 mg/L. After incubating for 24 h or 48 h, the MTT reagent (5 mg/mL, in 30 μL PBS buffer) was added and the cells were incubated for another 4 h at 37° C. The cell culture media were then carefully removed and 200 μL of DMSO were added. The DMSO solution was transferred into another 96-well plate and the absorbance at 570 nm was recorded by microplate reader. All experiments were performed in quadruplicate.
In vitro cytotoxicity of Cas9:sgRNA/LNPs against GFP-HEK cells was also evaluated by the MTT assay.

The subject of data set [2] is GFP-HEK cells. In words: Cas9:sgRNA RNP delivery, GFP gene knockout. It counts as cell-based. The following applies: 48 h; 25 nM Cas9:sgRNA RNP; lipidoid 3.3 mg/L. The protocol: For CRISPR/Cas9 gene knockout study, GFP-HEK cells were seeded in 48-well plate with a density of 2×10^4 cell/well. After 24 h of incubation, Cas9:sgRNA/LNP nanoparticles were added to the cells and incubated for 4 h, followed by media changed. After 48 h of incubation, the green emission from GFP was analyzed by flow cytometry.
For the intracellular delivery, GFP-HEK cells were harvested after treating with Cas9:sgRNA/LNPs nanocomplexes for 48 h. GFP gene knockout efficacy was further evaluated by flow cytometry.

Data set [3] in a line: TEM size of lipidoid nanoparticles. In kind it is physicochemical. As to conditions: TEM images of LNPs. The protocol:
(§1) All chemicals used for lipidoids synthesis were purchased from Sigma-Aldrich without further purification unless otherwise noted. (−30)GFP-Cre recombinase, S. pyogenes Cas9 (spCas9) and sgRNA were generated following the protocols reported in Wang at al., Proc. Natl. Acad. Sci. USA, 2016, 113, 2868-2873 (“Wang”). HeLa-DsRed and GFP-HEK cells were cultured in Dulbecco's modified eagle's medium (DMEM, Sigma-Aldrich) with 10% fetal bovine serum (FBS, Sigma-Aldrich) and 1% penicillin-streptomycin (Gibco). All ^1H NMR spectra were recorded on a Bruker AVIII 500 MHz NMR spectrometer operated in the Fourier transform mode. Hydrodynamic size and polydispersity index of nanoparticles were measured by Zeta-PALS particle size analyzer (Brookhaven Instruments). The apparent pKa values of lipidoids were determined using 2-(p-toluidinynaphthalene-6-sulphonic acid) (TNS, Sigma-Aldrich) as fluorescent probe following the protocols reported in Heyes et al., J. Controlled Release, 2005, 107, 276-287. TEM measurements were performed on a FEI Technai Transmission Electron Microscope. Fluorescence images of tissue slices were obtained using BZ-X Analyzer fluorescence microscope.
(§2) The morphologies of LNPs were further studied by the transmission electron microscopy (TEM). […] Subsequently, the stability of LNPs thus prepared was examined by DLS and fluorescence measurements.
The morphologies of OCholB fully substituted LNPs were then examined by transmission electron microscopy (TEM). […] In contrast, the vesicular structures were not well-formed for 87-OCholB and 90-OCholB compared to their counterparts, and amorphous aggregates were observed instead.

The nature of data set [4]: Hydrodynamic size and polydispersity of lipidoid nanoparticles by DLS. It counts as physicochemical. As to conditions: blank LNPs. How it is done:
as §1
Lipidoids nanoparticles (LNPs) were fabricated in sodium acetate buffer (25 mM, pH 5.2) by following the simple ultrasonication and vortex procedures described above. Hydrodynamic sizes and polydispersity index (PDI) of LNPs were measured by dynamic laser scattering (DLS) analysis.
Lipidoids were fabricated into nanoparticles for all delivery applications.
In this context, two strategies were tested, i.e., synthesizing new OCholB-tailed lipidoids with single tail rather than full substitution, and adding helper lipids (phospholipids) into fully substituted OCholB LNPs. […] The delivery efficacies of the single-tailed LNPs were first tested using GFP mRNA against HeLa cells (lipidoid/mRNA=10/1; [mRNA]=0.86 μg mL^−1; 24 h of exposure). […] We then tried to add helper lipids into the original two-tailed OCholB lipidoid nanoparticles formulations. As a proof-of-concept, DOPE was mixed with OCholB lipidoids (lipidoid/DOPE=1/1, weight ratio) and nanoparticles were fabricated (noted as 75-OCholB-F, 76-OCholB-F, and 77-OCholB-F) and loaded with Cas9 mRNA and sgRNA (mRNA/sgRNA=1/1, weight ratio).

A further data set concerns Ai14 mice. Kind of data set: In vivo (−30)GFP-Cre delivery with formulated O17 LNPs, intravenous, tdTomato expression. The arrangement: species or system mouse. The following applies: day 0 and day 5, 100 μg protein each, organs at day 20. The protocol:
Formulated LNPs (lipidoid/Cholesterol/DOPE/DSPE-PEG2k=16/4/1/4, weight ratio) were prepared for protein loading and mice injection. Ai14 mice were housed in a temperature and humidity controlled facility with a 12 h light/dark cycle. Two mice in each group were injected with (−30)GFP-Cre/LNPs formulations on day 0 and 5, with 100 μg protein for each injection. Organs including heart, liver, spleen, lung and kidney from all groups were collected 20 days after injections. The tissues were fixed overnight in 4% paraformaldehyde (PFA) before being sectioning into 10 μm slices. The slices were collected and stained with DAPI for fluorescence imaging.
Upon Cre mediated gene recombination, the STOP cassette was removed, resulting in tdTomato expression. Considering the different performances of cargo loaded LNPs in vitro and in vivo, three LNPs with same amine heads and different tails (76-O17O, 76-O17S and 76-O17Se) were tested in this study. Formulated LNPs (lipidoid/cholesterol/DOPE/DSPE-PEG2k=16/4/1/4, weight ratio) were prepared. Mice were injected (intravenous injection) with (−30)GFP-Cre loaded the formulated LNPs (GFP-Cre/76-O17O, GFP-Cre/76-O17S, and GFP-Cre/76-O17Se) at day 0 and day 5 (100 μg of protein for each injection). […] Fluorescence images with lower magnification and larger field of view were obtained. […]

Data set [5] concerns HeLa-DsRed cells. Kind of data set: Cre-mediated gene recombination (DsRed expression) after (−30)GFP-Cre/LNP delivery. It counts as cell-based. The following applies: 24 h; 25 nM (−30)GFP-Cre; lipidoid 3.3 mg/L. How it is done: (§3) The final (−30)GFP-Cre protein concentration is 25 nM, and lipidoid concentration is 3.3 mg/L. For the gene recombination functional study, HeLa-DsRed cells were treated with same conditions and the red fluorescence emission from DsRed was analyzed by flow cytometry 24 h after delivery.
The top 12 of LNPs identified through intracellular delivery screening experiments were further tested for gene recombination using HeLa-DsRed model cells. The expression of DsRed from Cre protein mediated gene recombination was analyzed after 24 h of co-incubation with free (−30)GFP-Cre protein and protein loaded LNPs. […] Most of the test LNPs, on the other hand, efficiently delivered (−30)GFP-Cre protein and induced gene recombination, with 14-46% of the cells positive for DsRed.

The test system of data set [6] is HeLa-DsRed cells. In words: Intracellular delivery of (−30)GFP-Cre/LNP (GFP-positive cells). It counts as cell-based. As to conditions: 25 nM (−30)GFP-Cre, lipidoid 3.3 mg/L; for green fluorescence emission (fluorescence microscopy): 6 h incubation; for GFP-positive cells: flow cytometry, 6 h. The protocol: as §3
A Cre recombinase protein fused to a negatively supercharged GFP variant ((−30)GFP-Cre) was used as a model cargo protein. The (−30)GFP-Cre protein was able to complex with cationic LNPs through electrostatic attraction and other types supramolecular interactions. The cellular uptake of LNPs could be determined by direct analysis of intracellular GFP fluorescent intensity as reported in Wang. HeLa-DsRed cells were used in this study, which expressed red fluorescent DsRed upon Cre-mediated recombination to facilitate the functional study of delivered proteins in the following study.
The (−30)GFP-Cre protein loaded LNPs (GFP-Cre/LNPs) were prepared at first by simply mixing precalculated amount of aqueous solution of LNPs and protein at ambient conditions. For the intracellular delivery, after incubation with GFP-Cre/LNPs nanoparticles for 6 h, the GFP-positive cells were observed using fluorescence microscopy, harvested and counted by flow cytometry. […] The intracellular (−30)GFP-Cre protein delivery efficiencies were further quantified by flow cytometry.
(Flow cytometry measures light scatter and fluorescence of single cells or particles in a stream.)

Data set [7] can be described thus: Storage stability of LNPs (time-dependent DLS, DiO/DiI FRET). In kind it is physicochemical. As to conditions: DiO and DiI loaded LNPs, five days of storage. How it is done: as §2
The cell (HeLa and HeLa-DsRed cell lines) internalization studies were conducted using small molecular hydrophobic (nile red) and hydrophilic (calcein) fluorescent dyes and macromolecular fluorescent recombinant protein ((−30)GFP-Cre) loaded OCholB LNPs. The stabilities of cargo-loaded LNPs were examined at first using time-dependent DLS and fluorescence measurements.

Another data set deals with HeLa cells. In words: Internalization of calcein loaded nanoparticles. As to conditions: 8 h of exposure. It counts as cell-based. The protocol:
The internalization kinetics and efficiencies of OCholB LNPs were then studied using NR loaded LNPs and HeLa cells. […] Next, all of the NR delivery efficiencies of eight OCholB LNPs were determined after 8 h of exposure. […] Representative fluorescent images of NR/LNPs (NR/75-OCholB, NR/76-OCholB and NR/77-OCholB) treated HeLa cells are shown in FIG. 12D, from which it is easily observed that NR was delivered into the cells and mainly distributed in cytoplasm, by OCholB LNPs. Next, the internalization of negatively charged hydrophilic fluorescent dye, calcein, was studied. […] Next, the use of OCholB LNPs for the intracellular delivery of macromolecular cargo was explored, using fluorescent recombinant (−30)GFP-Cre protein and HeLa-DsRed cells as the model system. […] Delivery efficiency was tested at a range of (−30)GFP-Cre protein concentrations (25, 50 and 100 nM), with a consistent lipid/protein ratio (i.e., delivery with the final lipid concentration of 1.7, 3.3, and 6.6 μg mL^−1 respectively). 33.2%, 43.8% and 74% of GFP positive (GFP^+) cells were recorded for (−30)GFP-Cre/Lpf2k treated cells with the concentration of (−30)GFP-Cre 25 nM, 50 nM and 100 nM, respectively. […]

Regarding `CCCCCCCCCCCCCC[Se]CCOC(=O)CCN(CCCN(CC)CC)CCC(=O)OCC[Se]CCCCCCCCCCCCCC` [Lipidoid 81-O17Se], the cell viability with GFP-HEK cells [1] came out at 97.7%. For the same compound, in the data set on GFP-HEK cells [2], the “GFP knockout (GFP-negative cells)” value stood at 54.7%.

On to `CCCCCCCCCCCCCCSCCOC(=O)CCN(CCC(=O)OCCSCCCCCCCCCCCCCC)CCN1CCCC1` [Lipidoid 76-O17S], for which the “size measured by TEM” value in data set [3] came out at 94 nm. In addition, in data set [4], the “averaged hydrodynamic diameter (<Dh>)” value is reported as 114.3 nm and the “polydispersity index (PDI, μ2/I^2)” value is 0.24. In the data set with Ai14 mice, the “tdTomato signal in sections of lung” value is “strong tdTomato signals”. Further, the “cells positive for DsRed (protein transfection efficiency)” value with HeLa-DsRed cells [5] was 40.8%. For the same compound, in the data set with HeLa-DsRed cells [6], the “green fluorescence emission (fluorescence microscopy)” value (from here on “green fluorescence emission”) was “bright green fluorescence emission”.

Regarding `CCCCCCCCCCCCCC[Se]CCOC(=O)CCN(CCC(=O)OCC[Se]CCCCCCCCCCCCCC)CCN1CCCC1` [Lipidoid 76-O17Se], the cell viability in the data set on GFP-HEK cells [1] turned out to be 76.3%. For the same compound, the “size measured by TEM” value in [3] turned out to be 133 nm. Moreover, in data set [4], the “averaged hydrodynamic diameter (<Dh>)” value is 129.4 nm and the “polydispersity index (PDI, μ2/I^2)” value is reported as 0.18. Also, the “tdTomato signal in sections of lung” value with Ai14 mice is given as “strong tdTomato signals”. In addition, the “GFP knockout (GFP-negative cells)” value with GFP-HEK cells [2] is recorded as 50.2%. Also, the “FRET ratio (I575/I575+I505) variations” value in data set [7] is given as “negligible”. The “cells positive for DsRed (protein transfection efficiency)” value with HeLa-DsRed cells [5] is reported as 36.1%. Besides, the “green fluorescence emission” value in the data set on HeLa-DsRed cells [6] is reported as “bright green fluorescence emission”.

Regarding `CCCCCCCCCCCCCC[Se]CCOC(=O)CCN(CCCN(C)C)CCC(=O)OCC[Se]CCCCCCCCCCCCCC` [Lipidoid 80-O17Se], the cell viability in the data set on GFP-HEK cells [1] amounted to 68.2%. Moreover, the “GFP knockout (GFP-negative cells)” value in the data set on GFP-HEK cells [2] was 57.7%. Moreover, in the data set on HeLa-DsRed cells [6], the GFP-positive cells was found to be 39%.

Consider `CCCCCCCCCCCCCCOCCOC(=O)CCN(CCC(=O)OCCOCCCCCCCCCCCCCC)CCN1CCCC1` [Lipidoid 76-O17O], for which, in [3], the “size measured by TEM” value turned out to be 145 nm. In data set [4], the “averaged hydrodynamic diameter (<Dh>)” value was 170.1 nm and the “polydispersity index (PDI, μ2/I^2)” value turned out to be 0.37. For the same compound, the “green fluorescence emission” value with HeLa-DsRed cells [6] was “bright green fluorescence emission”.

As to `O=C(O)CN(CC(=O)O)Cc1cc2c(cc1O)Oc1cc(O)c(CN(CC(=O)O)CC(=O)O)cc1C21OC(=O)c2ccccc21` [free calcein, calcein, reference compound], the “mean fluorescent intensity vs free calcein-treated cells” value in the data set on HeLa cells is reported as “cannot enter into the cells efficiently”.

The compound `CCCCCCCCCCCCCC[Se]CCOC(=O)CCN(CCCN(C)C)CCCN(CCC(=O)OCC[Se]CCCCCCCCCCCCCC)CCC(=O)OCC[Se]CCCCCCCCCCCCCC` [Lipidoid 400-O17Se] gave a cell viability in the data set on GFP-HEK cells [1] of 66.7%. The “GFP knockout (GFP-negative cells)” value in the data set on GFP-HEK cells [2] was 57.4%. For the same compound, the GFP-positive cells in the data set on HeLa-DsRed cells [6] is given as 42%.

A word on the cell viability: it is a per cent measure of how many cells are alive, often set against a control. Read a low cell viability as more harm to the cells.

The values are drawn from patent US12133855B2, “Lipid-like nanocomplexes and uses thereof” (Trustees of Tufts College, priority 2018, dated 2024).
